# Assay results from patent US11987588B2, “Modulators of the beta-3 adrenergic receptor useful for the treatment or prevention of heart failure and disorders related thereto” (Arena Pharmaceuticals, Inc., priority 2017, dated 2024).
# Biological target: Beta-3 Adrenergic Receptor (Homo sapiens (Human), UniProt P13945)
# Assay: Homogeneous Time-Resolved Fluorescence (HTRF) cAMP antagonist assay, IC50 determination
# Assay type: cell-based
# Details: CHO-K1 cells stably expressing recombinant receptor, isoproterenol at EC90
# Procedure, shortened: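 CHO-K1 cells stably expressing receptor, 1500 cells/well, preincubated briefly with 10-point 5-fold compound series (top final typically 10 or 100 μM) in PBS with 1 mM IBMX, then challenged with isoproterenol at EC90 for 1 h at room temperature. cAMP read by HTRF against on-plate standard curve; IC50 from dose-response.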
# Chain of Beta-3 Adrenergic Receptor (P13945 whole entry, species assumed): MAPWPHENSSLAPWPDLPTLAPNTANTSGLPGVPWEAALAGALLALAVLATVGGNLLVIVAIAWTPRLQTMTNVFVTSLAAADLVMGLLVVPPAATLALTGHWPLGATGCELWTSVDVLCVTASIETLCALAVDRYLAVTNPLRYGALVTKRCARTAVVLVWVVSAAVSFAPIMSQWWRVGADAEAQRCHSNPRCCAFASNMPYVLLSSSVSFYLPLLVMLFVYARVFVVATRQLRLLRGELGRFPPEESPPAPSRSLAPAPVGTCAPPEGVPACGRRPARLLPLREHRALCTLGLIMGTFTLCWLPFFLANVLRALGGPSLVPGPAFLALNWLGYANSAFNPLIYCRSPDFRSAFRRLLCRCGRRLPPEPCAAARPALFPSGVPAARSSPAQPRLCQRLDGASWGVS
row,SMILES,IC50 [nM]
1,"CCCn1cc(S(=O)(=O)N2CCC3(CC2)C[C@@H](NC[C@H](O)COc2cccc(S(N)(=O)=O)c2)CO3)c(=O)c2ccccc21 [Compound 551, 3-((S)-2-hydroxy-3-((R)-8-(4-oxo-1-propyl-1,4-dihydroquinolin-3-ylsulfonyl)-1-oxa-8-azaspiro[4.5]decan-3-ylamino)propoxy)benzenesulfonamide]",74.7
2,"CN(C)CCCNS(=O)(=O)c1cccc(OC[C@@H](O)CNC2COC3(CCN(S(=O)(=O)c4ccc(-c5ccccc5)s4)CC3)C2)c1 (stereo partly drawn) [Compound 315, N-(3-(dimethylamino)propyl)-3-((2S)-2-hydroxy-3-(8-(5-phenylthiophen-2-ylsulfonyl)-1-oxa-8-azaspiro[4.5]decan-3-ylamino)propoxy)benzenesulfonamide]",1070
3,"CNS(=O)(=O)c1cccc(OC[C@@H](O)CNC2COC3(CCN(S(=O)(=O)c4ccc(-c5ccc(F)cc5)cc4)CC3)C2)c1 (stereo partly drawn) [Compound 122, 3-((2S)-3-(8-(4′-fluorobiphenyl-4-ylsulfonyl)-1-oxa-8-azaspiro[4.5]decan-3-ylamino)-2-hydroxypropoxy)-N-methylbenzenesulfonamide]",34.1
4,"CN(C)S(=O)(=O)c1cccc(OC[C@@H](O)CNC2COC3(CCN(S(=O)(=O)c4ccc(-c5ccccc5)s4)CC3)C2)c1 (stereo partly drawn) [Compound 255, 3-((2S)-2-hydroxy-3-(8-(5-phenylthiophen-2-ylsulfonyl)-1-oxa-8-azaspiro[4.5]decan-3-ylamino)propoxy)-N,N-dimethylbenzenesulfonamide]",55.1
5,"CNS(=O)(=O)c1cccc(OC[C@@H](O)CNC2COC3(CCN(S(=O)(=O)c4ccc5c(c4)N(C)CCO5)CC3)C2)c1 (stereo partly drawn) [Compound 189, 3-((2S)-2-hydroxy-3-(8-(4-methyl-3,4-dihydro-2H-benzo[b][1,4]oxazin-6-ylsulfonyl)-1-oxa-8-azaspiro[4.5]decan-3-ylamino)propoxy)-N-methylbenzenesulfonamide]",8.51
6,"CNS(=O)(=O)c1cccc(OC[C@@H](O)CNC2COC3(CCN(S(=O)(=O)c4cc(C)ccc4OC)CC3)C2)c1 (stereo partly drawn) [Compound 176, 3-((2S)-2-hydroxy-3-(8-(2-methoxy-5-methylphenylsulfonyl)-1-oxa-8-azaspiro[4.5]decan-3-ylamino)propoxy)-N-methylbenzenesulfonamide]",23.3
7,"CNS(=O)(=O)c1cccc(OC[C@@H](O)CNC2COC3(CCN(S(=O)(=O)c4cccc(-c5ccc(CNCC#N)cc5)c4)CC3)C2)c1 (stereo partly drawn) [Compound 338, 3-((2S)-3-(8-(4′-((cyanomethylamino)methyl)biphenyl-3-ylsulfonyl)-1-oxa-8-azaspiro[4.5]decan-3-ylamino)-2-hydroxypropoxy)-N-methylbenzenesulfonamide]",47.1
8,"CCN(C(C)C)S(=O)(=O)c1cccc(OC[C@@H](O)CNC2COC3(CCN(S(=O)(=O)c4ccc5ccccc5c4)CC3)C2)c1 (stereo partly drawn) [Compound 7, N-ethyl-3-((2S)-2-hydroxy-3-(8-(naphthalen-2-ylsulfonyl)-1-oxa-8-azaspiro[4.5]decan-3-ylamino)propoxy)-N-isopropylbenzenesulfonamide]",285
9,"C[C@H](CO)NS(=O)(=O)c1cccc(OC[C@@H](O)CNC2COC3(CCN(S(=O)(=O)c4ccc5ccccc5c4)CC3)C2)c1 (stereo partly drawn) [Compound 96, 3-((2S)-2-hydroxy-3-(8-(naphthalen-2-ylsulfonyl)-1-oxa-8-azaspiro[4.5]decan-3-ylamino)propoxy)-N—((R)-1-hydroxypropan-2-yl)benzenesulfonamide]",42.1
10,"CNS(=O)(=O)c1cccc(OC[C@@H](O)CN[C@@H]2COC3(CCN(S(=O)(=O)c4cccc(-c5ccc(CNC(C)C)cc5)c4)CC3)C2)c1 [Compound 359, 3-((S)-2-hydroxy-3-((S)-8-(4′-((isopropylamino)methyl)biphenyl-3-ylsulfonyl)-1-oxa-8-azaspiro[4.5]decan-3-ylamino)propoxy)-N-methylbenzenesulfonamide]",17.9
11,"CNS(=O)(=O)c1cccc(OC[C@@H](O)CNC2COC3(CCN(S(=O)(=O)c4cccc(-c5cn(C)nc5C)c4)CC3)C2)c1 (stereo partly drawn) [Compound 68, 3-((2S)-3-(8-(3-(1,3-dimethyl-1H-pyrazol-4-yl)phenylsulfonyl)-1-oxa-8-azaspiro[4.5]decan-3-ylamino)-2-hydroxypropoxy)-N-methylbenzenesulfonamide]",36.9

# Further molecules by falling IC50, results first:
row,IC50 [nM],SMILES
1,3170,"CN(C)CCCNS(=O)(=O)c1cccc(OC[C@@H](O)CNC2COC3(CCN(S(=O)(=O)c4ccc5nsnc5c4)CC3)C2)c1 (stereo partly drawn) [Compound 312, 3-((2S)-3-(8-(benzo[c][1,2,5]thiadiazol-5-ylsulfonyl)-1-oxa-8-azaspiro[4.5]decan-3-ylamino)-2-hydroxypropoxy)-N-(3-(dimethylamino)propyl)benzenesulfonamide]"
2,3000,"Cc1ccc(F)c(S(=O)(=O)N2CCC3(CC2)CC(NC[C@H](O)COc2cccc(S(=O)(=O)NCCCN(C)C)c2)CO3)c1 (stereo partly drawn) [Compound 309, N-(3-(dimethylamino)propyl)-3-((2S)-3-(8-(2-fluoro-5-methylphenylsulfonyl)-1-oxa-8-azaspiro[4.5]decan-3-ylamino)-2-hydroxypropoxy)benzenesulfonamide]"
3,115,"CNS(=O)(=O)c1cccc(OC[C@@H](O)CN[C@H]2COC3(CCN(c4nccc(Cc5ccccc5)n4)CC3)C2)c1 [Compound 573, 3-((S)-3-((R)-8-(4-benzylpyrimidin-2-yl)-1-oxa-8-azaspiro[4.5]decan-3-ylamino)-2-hydroxypropoxy)-N-methylbenzenesulfonamide]"
4,69,"CNS(=O)(=O)c1cccc(OC[C@@H](O)CN[C@H]2COC3(CCN(S(=O)(=O)c4cnc5c(c4)N(CCOC)CCO5)CC3)C2)c1 [Compound 471, 3-((S)-2-hydroxy-3-((R)-8-(1-(2-methoxyethyl)-2,3-dihydro-1H-pyrido[2,3-b][1,4]oxazin-7-ylsulfonyl)-1-oxa-8-azaspiro[4.5]decan-3-ylamino)propoxy)-N-methylbenzenesulfonamide]"
5,57.7,"CNS(=O)(=O)c1cccc(OC[C@@H](O)CN[C@@H]2COC3(CCN(S(=O)(=O)c4cccc(-c5cnn(C)c5)c4)CC3)C2)c1 [Compound 216, 3-((S)-2-hydroxy-3-((S)-8-(3-(1-methyl-1H-pyrazol-4-yl)phenylsulfonyl)-1-oxa-8-azaspiro[4.5]decan-3-ylamino)propoxy)-N-methylbenzenesulfonamide]"
6,54.9,"CNS(=O)(=O)c1cccc(OC[C@@H](O)CNC2COC3(CCN(S(=O)(=O)c4ccc(OC)cc4C)CC3)C2)c1 (stereo partly drawn) [Compound 236, 3-((2S)-2-hydroxy-3-(8-(4-methoxy-2-methylphenylsulfonyl)-1-oxa-8-azaspiro[4.5]decan-3-ylamino)propoxy)-N-methylbenzenesulfonamide]"
7,32.6,"CNS(=O)(=O)c1cccc(OC[C@@H](O)CNC2COC3(CCN(S(=O)(=O)c4cccc(-c5ccc(CNC(C)C)cc5)c4)CC3)C2)c1 (stereo partly drawn) [Compound 303, 3-((2S)-2-hydroxy-3-(8-(4′-((isopropylamino)methyl)biphenyl-3-ylsulfonyl)-1-oxa-8-azaspiro[4.5]decan-3-ylamino)propoxy)-N-methylbenzenesulfonamide]"
8,26.3,"CNS(=O)(=O)c1cccc(OC[C@@H](O)CNC2COC3(CCN(S(=O)(=O)c4cccc(-c5ccc(C)nc5)c4)CC3)C2)c1 (stereo partly drawn) [Compound 111, 3-((2S)-2-hydroxy-3-(8-(3-(6-methylpyridin-3-yl)phenylsulfonyl)-1-oxa-8-azaspiro[4.5]decan-3-ylamino)propoxy)-N-methylbenzenesulfonamide]"
9,24.9,"CNS(=O)(=O)c1cccc(OC[C@@H](O)CNC2COC3(CCN(S(=O)(=O)c4c(Cl)nc5sccn45)CC3)C2)c1 (stereo partly drawn) [Compound 129, 3-((2S)-3-(8-(6-chloroimidazo[2,1-b]thiazol-5-ylsulfonyl)-1-oxa-8-azaspiro[4.5]decan-3-ylamino)-2-hydroxypropoxy)-N-methylbenzenesulfonamide]"
10,22.2,"CNS(=O)(=O)c1cccc(OC[C@@H](O)CN[C@H]2COC3(CCN(S(=O)(=O)c4cnc5[nH]c(=O)n(C)c5c4)CC3)C2)c1 [Compound 522, 3-((S)-2-hydroxy-3-((R)-8-(1-methyl-2-oxo-2,3-dihydro-1H-imidazo[4,5-b]pyridin-6-ylsulfonyl)-1-oxa-8-azaspiro[4.5]decan-3-ylamino)propoxy)-N-methylbenzenesulfonamide]"
11,18.6,"CNS(=O)(=O)c1cccc(OC[C@@H](O)CNC2COC3(CCN(S(=O)(=O)c4cncc(Br)c4)CC3)C2)c1 (stereo partly drawn) [Compound 337, 3-((2S)-3-(8-(5-bromopyridin-3-ylsulfonyl)-1-oxa-8-azaspiro[4.5]decan-3-ylamino)-2-hydroxypropoxy)-N-methylbenzenesulfonamide]"
12,17.2,"CNS(=O)(=O)c1cccc(OC[C@@H](O)CNC2COC3(CCN(S(=O)(=O)c4ccc5c(c4)NCCO5)CC3)C2)c1 (stereo partly drawn) [Compound 355, 3-((2S)-3-(8-(3,4-dihydro-2H-benzo[b][1,4]oxazin-6-ylsulfonyl)-1-oxa-8-azaspiro[4.5]decan-3-ylamino)-2-hydroxypropoxy)-N-methylbenzenesulfonamide]"
13,12.1,"CNS(=O)(=O)c1cccc(OC[C@@H](O)CN[C@@H]2COC3(CCN(S(=O)(=O)c4cnc5ccccc5c4)CC3)C2)c1 [Compound 335, 3-((S)-2-hydroxy-3-((S)-8-(quinolin-3-ylsulfonyl)-1-oxa-8-azaspiro[4.5]decan-3-ylamino)propoxy)-N-methylbenzenesulfonamide]"
14,11.8,"CNS(=O)(=O)c1cccc(OC[C@@H](O)CN[C@@H]2COC3(CCN(S(=O)(=O)c4ccc5c(c4)N(C)CCO5)CC3)C2)c1 [Compound 299, 3-((S)-2-hydroxy-3-((S)-8-(4-methyl-3,4-dihydro-2H-benzo[b][1,4]oxazin-6-ylsulfonyl)-1-oxa-8-azaspiro[4.5]decan-3-ylamino)propoxy)-N-methylbenzenesulfonamide]"
